Assays:
Type in all cases: cell-based
[1] = tested on: Crypthecodinium cohnii ATCC 30772; assay: Culture of C. cohnii in acetic acid pH-stat fermenter with propionic acid in the medium (Example 1); conditions: propionic acid 1% v/v
Description: The growth medium used for the first culture contained (initially) propionic acid (1% v/v), sodium acetate (8 g/L), yeast extract (7.5 g/L) and sea salts (25 g/L). The growth medium used for the second culture was the same but with the propionic acid omitted. Before use, the pH of each growth medium was adjusted to 6.5 by the addition of NaOH and the medium was then autoclaved at 121° C. for 1 hour.
The first and second cultures used the strain of Crypthecodinium cohnii available from the American Type Culture Collection and identified by the number 30772 (C. cohnii ATCC 30772).
The apparatus included a 5 L fermenter 10 of known type. The fermenter 10 was provided with a pH electrode 11 that was positioned in the fermenter 10 for monitoring the pH of the growth medium in the fermenter 10. The pH electrode 11 was connected via a control device 12 to a pump 13. The control device 12 was programmed to cause the pump 13 to pump acetic acid (50% v/v) from a reservoir 14 into the fermenter 10 when the pH electrode 11 detected a pH greater than a predetermined value (in this case pH 6.5 for both the first and second cultures).
If, during the culture, the pH fell below 6.5, the pH was brought back to 6.5 by adding KOH (2M). This was done automatically.
The fermenter 10 was also provided with a thermometer (not shown) and a heater (not shown) arranged to maintain the growth medium (and the C. cohnii 30772) at a desired temperature within the fermenter 10 (in this case 27° C. for both the first and second cultures).
The fermenter 10 was also provided with an aerator (not shown) that was connected to a source of air (not shown) for aerating the growth medium within the fermenter 10. An oxygen sensor (not shown) was positioned for measuring dissolved oxygen concentration in the growth medium within the fermenter 10. A stirrer (not shown) was provided for stirring the growth medium (and the C. cohnii 30772). The oxygen sensor was connected to the stirrer by a control device (not shown) for varying the speed of the stirrer in response to the oxygen concentration detected by the oxygen sensor so as to maintain the oxygen concentration at a desired level. For both the first and second cultures the aerator was set to aerate the culture at a rate of 1 volume of air per volume of culture per minute. The control device connected to the oxygen sensor and the stirrer was set so that the dissolved oxygen concentration was maintained above 30% of air saturation (the initial stirrer speed being 300 rpm).
To start each culture, 3.5 L of the appropriate growth medium was added to the fermenter 10. An inoculum of C. cohnii 30772 in 880 ml medium containing acetic acid/acetate, yeast extract and sea salt was then added to the fermenter (the preparation of the inoculum is described below). The fermenter 10 was then closed and the culture was heated to the desired operating temperature, aerated and stirred as described above.
In both the first and second cultures, the control device 12 caused the pump 13 to pump acetic acid into the fermenter 10 so as to maintain the pH at 6.5. This process, sometimes referred to as pH-stat operation, is described in detail in WO 01/04338. Briefly, it is believed that the Crypthecodinium cohnii metabolises the acetate in the growth medium (either in the form of acetate or acetic acid) as a carbon source. […]
During the first and second cultures, samples of the cultures were taken at time intervals. Each sample was analysed to determine dry cell weight. […]

[2] = tested on: Crypthecodinium cohnii (ATCC 30541); assay: Culture of C. cohnii 30541 in acetic acid pH-stat fermenters with propionic acid (Example 3)
Description: The value of including propionic acid in the culture medium was also shown with another strain of Crypthecodinium cohnii (ATCC 30541). This strain was grown on acetic acid in pH-stat fermenters as described in Example 1 with and without the inclusion of propionic acid at 1% of the volume of the initial culture medium. [table]

[3] = tested on: Crypthecodinium cohnii 30772; assay: Culture of C. cohnii with glucose as main carbon source with propionic acid in the medium (Example 2); conditions: propionic acid 1% v/v, glucose 60 g/L
Description: The growth medium used for the third culture contained (initially) propionic acid (1% v/v), glucose (60 g/L—autoclaved separately), yeast extract (7.5 g/L) and sea salts (25 g). The growth medium used for the fourth culture was the same but with the propionic acid omitted. In each case, the pH was 6.5. The microorganism used was Crypthecodinium cohnii 30772. For each of the third and fourth cultures, the Crypthecodinium cohnii was grown in a 5 L fermenter. The cultures were initiated by inoculating 3.5 L of the appropriate growth medium with 350 ml of a 3 day old shaking-flask culture of Crypthecodinium cohnii. The inoculum for the third culture was prepared using the same growth medium as that used in the third culture (i.e., with propionic acid) and the inoculum for the fourth culture was prepared using the same growth medium as that used in the fourth culture (i.e., without propionic acid). Cultures were aerated at 1 volume of air per volume of culture per minute and the dissolved oxygen concentration was maintained above 30% of air saturation by increasing the stirrer speed as required, from an initial speed of 300 rpm. The growth temperature was 27° C. and the pH was maintained at 6.5 by addition of KOH (2 M) and H2SO4 (1 M).

[4] = first culture, acetic acid pH-stat
[5] = 1% propionic acid versus without
[6] = propionic acid 1%, samples after 140-150 hours growth

What does the source list for `CCC(=O)O` [propionic acid]?
amount of DHA produced (overall) [1, 4]: 6 to 8 g/L; cellular lipid content [1, 4]: 55-65 % of the dry cell weight; content of docosahexaenoic acid [1, 4]: 35-40 % of the total lipid; forms of the microorganism present (cysts / swimmers), microscopic observation ([1]; first culture, after 24 hours): only non-motile cysts were present; dry cell weight in the first culture (with propionic acid) relative to the second culture (without propionic acid) ([1]; acetic acid/acetate carbon source, later stages of the cultures, FIG. 2): approximately double; increase in the amount of docosahexaenoic acid produced in the culture [2, 5]: about 85%; increase in the dry cell weight produced in the culture [2, 5]: over 60%; Cell dry wt [2, 6]: 75 g/L; DHA in lipid [2, 6]: 33 % w/w; Lipid in cells [2, 6]: 20 % w/w; Total DHA produced [2, 6]: 5 g/L; amount of total lipid produced relative to the fourth culture (without propionic acid) ([3]; FIG. 4): greater than twice; amount of docosahexaenoic acid produced relative to the fourth culture (without propionic acid) ([3]; FIG. 5): greater than twice; dry cell weight greater than in the fourth culture (without propionic acid) ([3]; later stages of the culture, FIG. 3): about 20%
